Results from patent publication US11007169B2, “Cis-gnetin H and trans-gnetin H as therapeutic agents” (MIDDLE TENNESSEE STATE UNIVERSITY, priority 2014, dated 2021).
pIC50: −log10 of the molar value.

How the values were obtained:
[1] = tested on: BT20 cells (human breast carcinoma); experiment: Inhibition of cell proliferation, AlamarBlue fluorescent assay, BT20; assay type: cell-based; conditions: for inhibition at 10 µM: BT-20, 10 uM, 48-hours treatment; for pIC50: BT-20, 48 hours, AlamarBlue, cancer cell line
Experimental: (§1) The cancer cell lines used in this study included human lung carcinoma (A549), human breast carcinoma (BT20 and MCF-7) and human osteosarcoma (U2OS), with the normal cell lines human peripheral lung epithelial cells (HPL1A) and human mammary epithelial cells (HMEC) serving as controls. A549, BT20, MCF-7, U2OS and HMEC cells were purchased from American Type Culture Collection (ATCC, USA), and HPL1A cells were obtained from Nagoya University, Japan. A549 and BT20 were grown in RPMI-1640 (Sigma), MCF-7 was grown in Dulbecco's Modified Eagle Medium (DMEM) (Sigma) supplemented with 0.01 mg/ml human recombinant insulin (Sigma), U2OS and HMEC were grown in McCoy's 5A (ATCC), and HPL1A was grown in DMEM/F-12K (Sigma). The mediums were supplemented with 10% Fetal Bovine Serum (FBS) (Gibco), 1% penicillin and streptomycin and incubated in a humidified atmosphere with 5% CO2 at 37° C.
(§2) The proliferation inhibition potential of cis- and trans-gnetin H was determined by a fluorescence dye staining method. Cells were seeded in a 96-well tissue culture-treated plate (BD Falcon) at a density of 4000 cells/well, and treated with cis- or trans-gnetin H for 48 hours. AlamarBlue dye (Invitrogen) was used to assess the viability of cells according to the manufacturer's instructions; the fluorescent intensity was read on a SpectraMax M2e microplate reader (Molecular Devices Inc.).
(§3) For the determination of IC50 values, cells were treated with a serial dilution (320 μM, 100 μM, 32 μM, 10 μM, 3.2 μM, and 0.32 μM) of cis- or trans-gnetin H for 48 hours. Cell viability was determined with AlamarBlue dye (Invitrogen) and the IC50 values were calculated using non-linear regression analysis.

[2] = tested on: MCF-7 cells (human breast carcinoma); experiment: Inhibition of cell proliferation, AlamarBlue fluorescent assay, MCF-7; assay type: cell-based; conditions: MCF7, 48 hours, cancer cell line
Experimental: as §1
as §2, with “Inc.). […]” for “Inc.).”

[3] = tested on: normal cells (HPL1A, HMEC); experiment: IC50 determination, normal cell lines; assay type: cell-based; conditions: Homo sapiens; HPL1A and HMEC, 48 hours; read-out: IC50 values in normal cells (range over cell lines)
Experimental: as §1
as §2, with “Inc.). […]” for “Inc.).”

[4] = tested on: IL-8 in LPS-stimulated THP-1 cells; experiment: Cytokine response by ELISA, IL-8; assay type: cell-based, human; conditions: cis 12.5-50 μM, trans 8-30 μM, 20 ng/ml LPS, p<0.05
Experimental: (§4) THP-1 cells were maintained in RPMI 1640 medium supplemented with 10% complement-inactivated FBS and 1% penicillin/streptomycin (complete culture medium) at 37° C. with 5% CO2 supplemented. Cell concentrations were adjusted to desired concentrations for each experiment by centrifugation at 500×g for 5 min and resuspended in complete culture medium with 100 nM of PMA. Cell concentration was adjusted to 5×10^5 cells/ml for all assays and 2.5×10^5 cells/ml were used for NF-κB nuclear translocation assay. Cells were seeded onto 96-, 24-, or 12-well plates and incubated for 48 to 72 h to allow for differentiation. Cells were washed with serum-free RPMI 1640 medium before each experiment to remove the undifferentiated cells.
Differentiated THP-1 cells were pretreated with various concentrations of cis-gnetin H, trans-gnetin H, or 1 μM of dexamethasone for 1 h and stimulated with 20 ng/ml of LPS for 4 h. Dexamethasone is a synthetic glucocorticoid that suppresses cytokine response and was used as a positive control (Abraham et al., 2006, J. Exp. Med., 203:1883-9; Steer et al., J. Biol. Chem., 2000, 275(24):18432-40). Supernatants were collected for human cytokine ELISAs and the manufacturer's protocol was followed to assess the cytokine response. Cells remaining after the supernatant collection were tested for relative viability by Alamar Blue cytotoxicity assay as described earlier.

[5] = tested on: phosphorylated IKK α/β (Ser176/180) in LPS-stimulated THP-1 cells; experiment: Western blot, IKK β phosphorylation; assay type: cell-based, human
Experimental: as §4
Differentiated THP-1 cells were pretreated with various concentrations of cis-gnetin H, trans-gnetin H, or 10 μM of Bay 11-7082 for 1 h and stimulated with 1 μg/ml of LPS for 15 min. Cells were lysed with radio-immunoprecipitation assay (RIPA; 1% Triton X-100, 0.5% Sodium deoxycholate, 0.1% sodium dodecyl sulfate, 150 mM sodium chloride, and 50 mM Tris-chloride) lysis buffer that contained protease and phosphatase inhibitor cocktail. Cell lysates were then tested for protein concentration using a BCA protein assay, and diluted with RIPA lysis buffer to normalize protein concentration in all samples. […]

[6] = tested on: caspase 3/7 in A549 cells; experiment: Caspase 3/7 activation assay (Caspase-Glo 3/7); assay type: cell-based, human; conditions: 100 μM
Experimental: Caspase 3/7 activity was analyzed using an in-situ luminescent marker. A549 and BT20 cells were seeded in a white 96-well plate (Greiner) at a density of 8000 cells/well, and treated with 100 μM cis- or trans-gnetin H for 24 hours. Caspase activity was then determined using the Caspase-Glo 3/7 Assay (Promega) according to the manufacturer's instructions. The luminescence of each sample was measured using a SpectraMax M2e Microplate Reader (Molecular Devices Inc.).

[7] = tested on: A549 cells (human lung carcinoma); experiment: Inhibition of cell proliferation, AlamarBlue fluorescent assay, A549; assay type: cell-based; conditions: for inhibition at 10 µM: 48-hours treatment; for pIC50: 48 hours, AlamarBlue, cancer cell line
Experimental: as §1, §2, §3

A549 cells = experiment: Cell cycle analysis by flow cytometry, A549; assay type: cell-based, human; conditions: 100 μM, 24 hours
Experimental: A549 and BT20 cells were first synchronized in the G0 phase by culturing cells for 24 hours in serum-free medium and then treated with 100 μM cis- or trans-gnetin H for 24 hours, respectively. Cell cycle analysis was done using propidium iodide (PI) staining as described (An et al., Mol. Cancer Ther. 2007; 6:61-9) and the cells were analyzed on a Guava Flow Cytometer with InCyte software (Millipore).

[8] = tested on: HPL1A cells (human peripheral lung epithelial cells); experiment: Inhibition of cell proliferation, AlamarBlue fluorescent assay, HPL1A normal control; assay type: cell-based; conditions: for inhibitory effects on normal HPL1A cells: 10 uM, up to 48 hours; for pIC50: Homo sapiens, HPL1A, 48 hours, AlamarBlue, normal cell line
Experimental: as §1, §2, §3

pIC50 [1] | pIC50 [2] | pIC50 [7] | Compound | inhibition at 10 µM [1] [%] | pIC50 [3] | inhibition of IL-8 [4] | IKK β phosphorylation [5] | activities of caspase 3/7 compared with untreated A549 cells [6] [fold] | inhibition at 10 µM [7] [%] | G0-G1 subpopulation, A549 (A549 cells) | M and G2-S subpopulation, A549 (A549 cells) | inhibitory effects on normal HPL1A cells [8] | pIC50 [8]
5.67 | 5.00 | 5.55 | Oc1ccc(/C=C\c2c3c(cc4c2[C@H](c2cc(O)cc(O)c2)[C@@H](c2ccc(O)cc2)O4)O[C@H](c2ccc(O)cc2)[C@H]3c2cc(O)cc(O)c2)cc1 [cis-gnetin H] | ~99 | 4.04 to 4.59 | significant inhibition | significantly inhibited | 3.65 | ~99 | increased significantly | significant decrease | no such obvious inhibitory effects | 4.04
5.87 | 5.12 | 5.59 | Oc1ccc(/C=C/c2c3c(cc4c2[C@H](c2cc(O)cc(O)c2)[C@@H](c2ccc(O)cc2)O4)O[C@H](c2ccc(O)cc2)[C@H]3c2cc(O)cc(O)c2)cc1 [trans-gnetin H] | ~99 | 4.04 to 4.59 | significant inhibition | significantly inhibited | 2.7 | ~99 | increased significantly | significant decrease | no such obvious inhibitory effects | 4.14
